We go through 23 compounds from patent US20060160894A1, “Benzamides as ppar modulators” (LABORATORIOS S.A.L.V.A.T.,S.A., priority 2003, published 2006).

pKi: −log10 of the molar value.

Test [1] addresses T1, GST-hPPARγ2 (Homo sapiens, UniProt P37231).
T1 construct: the complete cDNA of the […] human PPARs were cloned into pGEX4T2; made in house; host or cells: Escherichia coli BL21 (DE3)
T1 sequence (P37231 1-505): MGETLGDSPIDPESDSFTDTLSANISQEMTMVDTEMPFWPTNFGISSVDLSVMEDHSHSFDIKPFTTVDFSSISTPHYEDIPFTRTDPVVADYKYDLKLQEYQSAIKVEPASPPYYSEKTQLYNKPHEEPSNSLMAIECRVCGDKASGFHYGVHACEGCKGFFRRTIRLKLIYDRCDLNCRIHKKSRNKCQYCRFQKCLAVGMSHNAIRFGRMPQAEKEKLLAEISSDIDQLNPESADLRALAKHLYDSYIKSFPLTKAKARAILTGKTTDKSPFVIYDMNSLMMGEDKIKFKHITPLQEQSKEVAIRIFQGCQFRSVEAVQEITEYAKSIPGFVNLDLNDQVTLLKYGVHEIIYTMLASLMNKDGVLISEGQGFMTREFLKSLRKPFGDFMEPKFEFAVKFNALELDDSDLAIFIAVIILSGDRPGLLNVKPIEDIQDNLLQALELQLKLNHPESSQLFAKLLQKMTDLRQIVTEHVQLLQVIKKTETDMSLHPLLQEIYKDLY
In words: Assay of binding to the PPARγ2 ([3H]BRL-49853 displacement). Conditions: Table 19; GST-hPPARγ2, [3H]BRL-49853 100 nM; read-out: Affinity PPARγ(1). As to the method:
Assay of Binding to the PPARγ2
The cDNA encoding for the open reading frame of the hPPARγ2 is amplified by PCR (polymerase chain reaction) and inserted in the plasmid pGEX-4T-2.
The reaction mixture was transferred to a Multiscreen Durapore (Millipore) microplate containing glutathione-Sepharose 4B in every well. The reaction mixture was left to incubate with the resin during 10 min, and then centrifuged at 735 g during 2 min. To dissociate the receptor bound to the resin, reduced glutathione 10 mM is added and incubated during 10 min. The receptor was eluted by centrifugation. Then, 800 μL of scintillation liquid were added to the elution and the contained radioactivity was quantified by liquid scintillation spectroscopy (Microbeta Wallac, Perkin Elmer).

The target of test [2] is T2, PPARγ LBD (Homo sapiens, UniProt P37231).
T2 construct: expressed in transfected cells; host or cells: COS-7
T2 sequence (P37231 238-503 limits assumed): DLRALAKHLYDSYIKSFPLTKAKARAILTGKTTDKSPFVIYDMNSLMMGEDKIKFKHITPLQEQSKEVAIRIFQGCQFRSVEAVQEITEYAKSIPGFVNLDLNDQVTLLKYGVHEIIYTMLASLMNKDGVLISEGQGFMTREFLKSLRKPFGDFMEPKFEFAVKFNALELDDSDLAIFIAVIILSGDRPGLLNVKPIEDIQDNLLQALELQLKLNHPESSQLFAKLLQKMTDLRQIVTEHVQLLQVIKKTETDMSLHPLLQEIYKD
In words: LBD-hPPARs transactivation assay (GAL4-LBD luciferase reporter in COS-7 cells). It counts as cell-based. Conditions: 48 h. An excerpt: LBD-hPPARs Transactivation Assay
COS-7 cells were cultivated in 24-well plates and transfected with the pFACMV plasmids that encode the chimeric proteins containing the GAL4 DNA binding domain fused to the PPARγ LBD. The reporter plasmid for the foregoing constructions was pFR-Luc, which contains five repetitions of the GAL4-response element in front of a promoter that controls the transcription of the luciferase gene. Lipofectamine was used as a transfection agent.
The plasmids of the chimeric receptors and the reporter gene were inserted in the cells by transitory transfection in COS-7 cells in culture.

For `COC(=O)[C@H](Cc1ccc(OCc2ccccc2)cc1)NC(=O)c1ccc(OCc2ccccc2Cl)cc1` [Example 20, (2S)-3-(4-Benzyloxyphenyl)-2-[4-(2-chlorobenzyloxy)benzoylamino]propionic acid methyl ester], in test [1], the pKi is more than 6.00. For the same compound, the “Functional activity PPARγ” value in test [2] is “Partial agonist”.
For the compound `COC(=O)[C@H](Cc1ccc(OCc2ccccc2)cc1)NC(=O)c1ccc(OCc2cccc(Cl)c2)cc1` [Example 21, (2S)-3-(4-Benzyloxyphenyl)-2-[4-(3-chlorobenzyloxy)benzoylamino]propionic acid methyl ester], the pKi in test [1] is more than 6.00. For the same compound, in test [2], the “Functional activity PPARγ” value is on record as “Partial agonist”.
For `COC(=O)[C@H](Cc1ccc(OCc2ccccc2)cc1)NC(=O)c1ccc(OCc2ccccc2C)cc1` [Example 27, (2S)-3-(4-Benzyloxyphenyl)-2-[4-(2-methylbenzyloxy)benzoylamino]propionic acid methyl ester], the pKi in test [1] was more than 6.00. The “Functional activity PPARγ” value in test [2] is recorded as “Antagonist”.
Consider `COC(=O)[C@H](Cc1ccc(OCc2ccccc2)cc1)NC(=O)c1ccc(OCCOc2nc3ccccc3nc2C)cc1` [Example 95, (2S)-3-(4-Benzyloxyphenyl)-2-{4-[2-(3-methylquinoxalin-2-yloxy)ethoxy]benzoylamino}propionic acid methyl ester], for which the pKi in test [1] is more than 6.00. In addition, the “Functional activity PPARγ” value in test [2] is “Agonist”.
On the same counts, the results for `COC(=O)[C@H](Cc1ccc(OCc2ccccc2)cc1)NC(=O)c1ccc(OCCOc2cccc3cccnc23)cc1` [Example 98, (2S)-3-(4-Benzyloxyphenyl)-2-{4-[2-(quinolin-8-yloxy)ethoxy]-benzoylamino}propionic acid methyl ester] are more than 6.00 and “Antagonist”.
In the case of `O=C(N[C@@H](Cc1ccc(OCc2ccccc2)cc1)C(=O)O)c1ccc(OCc2ccccc2)cc1` [Example 129, (2S)-2-(4-Benzyloxybenzoylamino)-3-(4-benzyloxyphenyl)propionic acid], the pKi in test [1] is more than 6.00. Further, in test [2], the “Functional activity PPARγ” value is given as “Partial agonist”.
As to `O=C(N[C@H](Cc1c[nH]c2ccccc12)C(=O)O)c1ccc(OCCN(Cc2ccccc2)Cc2ccccc2)cc1` [Example 131, (2R)-2-[4-(2-Dibenzylaminoethoxy)benzoylamino]-3-(1H-indol-3-yl)propionic acid], the pKi in test [1] is 5.52 to 6.00. The “Functional activity PPARγ” value in test [2] is reported as “Partial agonist”.
For `O=C(NC(Cc1ccc(-c2ccccc2)cc1)C(=O)O)c1ccc(OCCN(Cc2ccccc2)Cc2ccccc2)cc1` (stereo not shown) [Example 136, 3-Biphenyl-4-yl-2-[4-(2-dibenzylaminoethoxy)benzoylamino]propionic acid], in test [1], the pKi is 5.52 to 6.00. Besides, the “Functional activity PPARγ” value in test [2] is “Antagonist”.
On the same counts, the results for `O=C(NC(Cc1cccc(Oc2ccccc2)c1)C(=O)O)c1ccc(OCCN(Cc2ccccc2)Cc2ccccc2)cc1` (stereo not shown) [Example 141, 2-[4-(2-Dibenzylaminoethoxy)benzoylamino]-3-(3-phenoxyphenyl)propionic acid] are 5.52 to 6.00 and “Antagonist”.
Regarding `O=C(NC(Cc1c[nH]c2ccc(Br)cc12)C(=O)O)c1ccc(OCCN(Cc2ccccc2)Cc2ccccc2)cc1` (stereo not shown) [Example 142, 3-(5-Bromo-1H-indol-3-yl)-2-[4-(2-dibenzylaminoethoxy)benzoylamino]propionic acid], the pKi in test [1] is 5.52 to 6.00. In test [2], the “Functional activity PPARγ” value is “Antagonist”.
On the same counts, the results for `O=C(N[C@@H](Cc1ccc(OCc2ccccc2)cc1)C(=O)O)c1cccc(OCc2cccc(OCc3ccccc3)c2)c1` [Example 145, (2S)-2-[3-(3-Benzyloxybenzyloxy)benzoylamino]-3-(4-benzyloxyphenyl)propionic acid] are 5.52 to 6.00 and “Antagonist”.
In the same order, the values of `O=C(O)CN(Cc1cccc(Oc2ccccc2)c1)C(=O)c1ccc(OCCN(Cc2ccccc2)Cc2ccccc2)cc1` [Example 146, {[4-(2-Dibenzylaminoethoxy)benzoyl]-(3-phenoxybenzyl)amino}acetic acid] are 5.52 to 6.00 and “Antagonist”.
In the case of `O=C(N[C@@H](Cc1ccc(OCc2ccccc2)cc1)C(=O)O)c1ccc(OCCCc2ccccc2)cc1` [Example 153, (2S)-3-(4-Benzyloxyphenyl)-2-[4-(3-phenylpropoxy)benzoylamino]propionic acid], the pKi in test [1] is 5.52 to 6.00. In test [2], the “Functional activity PPARγ” value is “Partial agonist”.
In the same order, the values of `Cc1nc2ccccc2nc1OCCOc1ccc(C(=O)N[C@@H](Cc2ccc(OCc3ccccc3)cc2)C(=O)O)cc1` [Example 160, (2S)-3-(4-Benzyloxyphenyl)-2-{4-[2-(3-methylquinoxalin-2-yloxy)ethoxy]benzoylamino}propionic acid] are less than 5.52 and “Partial agonist”.
In the same order, the values of `O=C(N[C@@H](Cc1ccc(OCc2ccccc2)cc1)C(=O)O)c1ccc(OCCOc2cccc(Br)c2)cc1` [Example 161, (2S)-3-(4-Benzyloxyphenyl)-2-{4-[2-(3-bromophenoxy)ethoxy]benzoylamino}propionic acid] are 5.52 to 6.00 and “Antagonist”.
`O=C(O)CCN(Cc1cccc(OCc2ccccc2)c1)C(=O)c1ccc(OCCN(Cc2ccccc2)Cc2ccccc2)cc1` [Example 162, 3-{(3-Benzyloxybenzyl)-[4-(2-dibenzylaminoethoxy)benzoyl]amino}propionic acid]: the pKi in test [1] is more than 6.00. In addition, in test [2], the “Functional activity PPARγ” value is “Antagonist”.
In the same order, the values of `O=C(O)CCN(Cc1cccc(OCc2ccccc2)c1)C(=O)c1cccc(OCCN(Cc2ccccc2)Cc2ccccc2)c1` [Example 163, 3-{(3-Benzyloxybenzyl)-[3-(2-dibenzylaminoethoxy)benzoyl]amino}propionic acid] are more than 6.00 and “Antagonist”.
`O=C(O)CCN(Cc1ccc(OCc2ccccc2)cc1)C(=O)c1cccc(OCCN(Cc2ccccc2)Cc2ccccc2)c1` [Example 164, 3-{(4-Benzyloxybenzyl)-[3-(2-dibenzylaminoethoxy)benzoyl]amino}propionic acid]: in test [1], the pKi is 5.52 to 6.00. The “Functional activity PPARγ” value in test [2] is given as “Antagonist”.
On to `Cc1nc2ccccc2nc1OCCOc1ccc(C(=O)N(CCC(=O)O)Cc2cccc(OCc3ccccc3)c2)cc1` [Example 170, 3-{(3-Benzyloxybenzyl)-{4-[2-(3-methylquinoxalin-2-yloxy)ethoxy]benzoyl}amino}propionic acid], for which the pKi in test [1] is 5.52 to 6.00. Further, in test [2], the “Functional activity PPARγ” value is “Antagonist”.
In the case of `O=C(O)CCN(Cc1ccc(OCc2ccccc2)cc1)C(=O)c1ccc(OCc2cccc(OCc3ccccc3)c2)cc1` [Example 176, 3-{(4-Benzyloxybenzyl)-[4-(3-benzyloxybenzyloxy)benzoyl]amino}propionic acid], the pKi in test [1] is more than 6.00. Further, in test [2], the “Functional activity PPARγ” value is on record as “Antagonist”.
On the same counts, the results for `Cc1nc2ccccc2nc1OCCOc1cccc(C(=O)N[C@@H](Cc2ccc(OCc3ccccc3)cc2)C(=O)O)c1` [Example 180, (2S)-3-(4-Benzyloxyphenyl)-2-{3-[2-(3-methylquinoxalin-2-yloxy)ethoxy]benzoylamino}propionic acid] are more than 6.00 and “Partial agonist”.
On the same counts, the results for `O=C(N[C@@H](Cc1ccc(OCc2ccccc2)cc1)C(=O)O)c1ccc(OCc2ccc(OCc3ccccc3)cc2)cc1` [Example 183, (2S)-2-[4-(4-Benzyloxybenzyloxy)benzoylamino]-3-(4-benzyloxyphenyl)propionic acid] are more than 6.00 and “Partial agonist”.
In the case of `O=C(N[C@@H](Cc1ccc(OCc2ccccc2)cc1)C(=O)O)c1cccc(OCc2ccc(OCc3ccccc3)cc2)c1` [Example 185, (2S)-2-[3-(4-Benzyloxybenzyloxy)benzoylamino]-3-(4-benzyloxyphenyl)propionic acid], in test [1], the pKi was more than 6.00. The “Functional activity PPARγ” value in test [2] is “Partial agonist”.
